The subject of one assay is MOLM14. The experiment in a line: Proliferation assay B (spheroid assay) MOLM14. The note with it: MOLM14 cells, confluence at day 8, absolute IC50, read-out: (3b) Spheroid assay MOLM14 (IC50(μM)) Assay B. Format: cell-based, human. Here is the method:
3b) Proliferation Assay B
The anti-proliferative effect of menin/MLL protein/protein interaction inhibitor test compounds was assessed in human leukemia cell lines. The cell lines MV-4-11 and MOLM14 harbor MILL translocations and express the MILL fusion proteins MLL-AF4 and MLL-AF9, respectively, as well as the wildtype protein from the second allele. […] K562 was used as a control cell line containing two MLL wildtype alleles in order to exclude compounds that display general cytotoxic effects.
MV-4-11 and MOLM14 were cultured in RPMI-1640 (Sigma Aldrich) supplemented with 10% fetal bovine serum (HyClone), 2 mM L-glutamine (Sigma Aldrich) and 50 μg/ml gentamycin (Gibco). K562 were propagated in RPMI-1640 (Sigma Aldrich) supplemented with 20% fetal bovine serum (HyClone), 2 mM L-glutamine (Sigma Aldrich) and 50 μg/ml gentamycin (Gibco).
In order to assess the anti-proliferative effects, 1,500 MV-4-11, 300 MOLM14 cells or 750 K562 cells were seeded in 200 μl media per well in 96-well round bottom, ultra-low attachment plates (Costar, catalogue number 7007). Cell seeding numbers were chosen based on growth curves to ensure linear growth throughout the experiment. Test compounds were added at different concentrations and the DMSO content was normalized to 0.3%. Cells were incubated for 8 d at 37° C. and 5% CO2. Spheroid like growth was measured in real-time by live-cell imaging (IncuCyteZOOM, Essenbio, 4× objective) acquiring images at day 8. Confluence (%) as a measure of spheroid size was determined using an integrated analysis tool.
In order to determine the effect of the test compounds over time, the confluence in each well as a measure of spheroid size, was calculated. Confluence […] at the beginning of the experiment (t=0) was used as baseline for the calculation.
Absolute IC50 values were calculated as percent change in confluence as follows:
LC=Low Control: cells treated with 1 μM of the cytotoxic agent staurosporin
HC=High Control: Mean confluence (%) (DMSO treated cells) % Effect=100−(100*(Sample−LC)/(HC−LC))
To determine the IC50 a curve is fitted to the plot of % Effect vs Log 10 compound concentration using a sigmoidal fit with a variable slope and fixing the maximum to 100% and the minimum to 0%.

A further assay deals with T1, menin (Homo sapiens, UniProt O00255, T541A).
T1 construct: Menin (a.a. 1-610-6×his tag)
T1 sequence (O00255 with tags, fused parts or gaps T541A): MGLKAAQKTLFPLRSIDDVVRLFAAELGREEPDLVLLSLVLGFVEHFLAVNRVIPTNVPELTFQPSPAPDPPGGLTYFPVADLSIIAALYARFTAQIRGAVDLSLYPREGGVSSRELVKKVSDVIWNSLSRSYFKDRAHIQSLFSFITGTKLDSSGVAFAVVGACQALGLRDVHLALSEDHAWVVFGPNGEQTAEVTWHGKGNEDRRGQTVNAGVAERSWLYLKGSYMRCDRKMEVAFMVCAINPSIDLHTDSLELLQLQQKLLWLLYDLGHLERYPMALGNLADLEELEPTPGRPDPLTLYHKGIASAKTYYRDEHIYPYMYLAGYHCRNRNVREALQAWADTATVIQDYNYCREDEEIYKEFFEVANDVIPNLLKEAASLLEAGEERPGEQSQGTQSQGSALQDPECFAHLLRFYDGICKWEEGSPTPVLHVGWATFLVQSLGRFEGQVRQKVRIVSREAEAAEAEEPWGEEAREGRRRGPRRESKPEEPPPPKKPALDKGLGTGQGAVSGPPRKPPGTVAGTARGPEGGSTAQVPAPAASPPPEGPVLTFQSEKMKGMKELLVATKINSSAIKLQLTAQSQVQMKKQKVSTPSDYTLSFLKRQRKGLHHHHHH
As to the kind of experiment: Menin/MLL homogenous time-resolved fluorescence (HTRF) assay. Type of assay: binding. The method, boiled down:
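Terbium-labeled menin (aa 1-610, His-tagged; […]) preincubated 5 min with compound, then 75 nM FITC-MBM1 peptide for 15 min, ambient, Tris pH 7.5, 0.5% DMSO. HTRF 520/490 ratio; 11-point 3-fold titration; IC50 from % inhibition fit.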
On the technique in general: In TR-FRET formats the signal depends on donor and acceptor labels being close together.

The mark [1] stands for this setting: location 2, read-out: (2) location 2 Menin HTRF assay (IC50 (nM)).
The mark [2] stands for this setting: location 1, read-out: (2) location 1 Menin HTRF assay (IC50 (nM)).

Read-outs that look alike come from different tables or passages of the source. Where only a bound is given, the exact number is not on record here.

One may read the IC50 as the midpoint of a concentration-inhibition curve. For `O=S(=O)(c1ccc(NC2CC3(CCN(c4ncnc5sc(CC(F)(F)F)cc45)C3)C2)cc1)N1CCOCC1` (single isomer, unassigned) [Compound 219], the half-inhibitory concentration (IC50) worked out at 2.4 µM in the assay with MOLM14 (Homo sapiens, MOLM-14, 192 h) and 2.6 nM on menin (setting [1]).
Regarding `CNC(=O)c1ccc(NC2CC3(CCN(c4ncnc5sc(CC(F)(F)F)cc45)C3)C2)c(F)c1F` (single isomer, unassigned) [Compound 227], the IC50 is more than 3.75 µM in the assay on MOLM14 and 80.2 nM on menin (setting [1]).
The like results for `CNC(=O)c1cc(F)c(NC2CC3(CCN(c4ncnc5sc(CC(F)(F)F)cc45)C3)C2)c(F)c1` (single isomer, unassigned) [Compound 228] were, in that order, more than 3.75 µM and 84.2 nM.
For `CNC(=O)c1cc(F)c(NC2CC3(CCN(c4ncnc5sc(CC(F)(F)F)cc45)C3)C2)c(F)c1` (single isomer, unassigned) [Compound 229] the same measures were 1 µM and 0.9 nM.
`CNC(=O)c1ccc(NC2CC3(CCN(c4ncnc5sc(CC(F)(F)F)cc45)C3)C2)cc1C1CCN(C)CC1` (single isomer, unassigned) [Compound 230]: the concentration for half-maximal inhibition (IC50) in the assay with MOLM14 (Homo sapiens, MOLM-14, 192 h) is more than 3.75 µM; on menin (setting [1]), 489 nM.
For `CN1CCC(c2cc(NC3CC4(CCN(c5ncnc6sc(CC(F)(F)F)cc56)C4)C3)ccc2C(=O)N2CCOCC2)CC1` (single isomer, unassigned) [Compound 232], the IC50 with MOLM14 (Homo sapiens, MOLM-14, 192 h) was more than 3.75 µM; on menin (setting [1]), 667 nM.
Regarding `CC(C#N)(C#N)c1ccc(NC2CC3(CCN(c4ncnc5sc(CC(F)(F)F)cc45)C3)C2)cc1` (single isomer, unassigned) [Compound 234], the IC50 with MOLM14 is more than 3.75 µM; on menin (setting [1]), 116 nM.
For `CC(C#N)(C#N)c1ccc(NC2CC3(CCN(c4ncnc5sc(CC(F)(F)F)cc45)C3)C2)cc1` (single isomer, unassigned) [Compound 235] the same measures were 1.53 µM and 4.1 nM.
Regarding `CN(C)CCNC(=O)c1ccc(NC2CC3(CCN(c4ncnc5sc(CC(F)(F)F)cc45)C3)C2)c(F)c1` (single isomer, unassigned) [Compound 242], the half-inhibitory concentration (IC50) with MOLM14 was more than 3.75 µM; on menin (setting [1]), 74.6 nM.
For `CN(C)CCNC(=O)c1ccc(NC2CC3(CCN(c4ncnc5sc(CC(F)(F)F)cc45)C3)C2)c(F)c1` (single isomer, unassigned) [Compound 243] the same measures were 1.11 µM and 2.9 nM.
For the compound `CNC(=O)c1c(F)cc(NC2CC3(CCN(c4ncnc5sc(CC(F)(F)F)cc45)C3)C2)cc1F` (single isomer, unassigned) [Compound 245], the IC50 with MOLM14 (Homo sapiens, MOLM-14, 192 h) is more than 3.75 µM; at menin (setting [1]), 7.7 nM.
Take `CN(C)CCNC(=O)c1ccc(NC2CC3(CCN(c4ncnc5sc(CC(F)(F)F)cc45)C3)C2)nc1` (single isomer, unassigned) [Compound 253]: the IC50 with MOLM14 is more than 3.75 µM; on menin (setting [1]), 235 nM.
For the compound `O=C(c1cnc(NC2CC3(CCN(c4ncnc5sc(CC(F)(F)F)cc45)C3)C2)nc1)N1CCOCC1` (single isomer, unassigned) [Compound 258], the IC50 is more than 3.75 µM in the assay on MOLM14 (Homo sapiens, MOLM-14, 192 h) and 108 nM at menin (setting [1]).
Regarding `FC(F)(F)Cc1cc2c(N3CC4(CC[C@H](Nc5ccc(-c6cn[nH]c6)cc5)C4)C3)ncnc2s1` (single isomer, unassigned) [Compound 304], the IC50 in the assay on MOLM14 (Homo sapiens, MOLM-14, 192 h) is more than 3.75 µM; on menin (setting [1]), 17.3 nM.
For `CC(=O)Nc1ccc(NC2CC3(CCN(c4ncnc5sc(CC(F)(F)F)cc45)C3)C2)cc1` (single isomer, unassigned) [Compound 331] the same measures were 3.38 µM and 3.4 nM.
On to `O=C(c1ccc(NC2CC3(CCN(c4ncnc5sc(CC(F)(F)F)cc45)C3)C2)c(F)c1)N1CCOCC1` (single isomer, unassigned) [Compound 352], for which the IC50 in the assay with MOLM14 was more than 3.75 µM; on menin (setting [1]) it was 139 nM.
Regarding `O=C(c1ccc(NC2CC3(CCN(c4ncnc5sc(CC(F)(F)F)cc45)C3)C2)c(F)c1)N1CCOCC1` (single isomer, unassigned) [Compound 353], the IC50 with MOLM14 (Homo sapiens, MOLM-14, 192 h) is more than 3.75 µM; on menin (setting [1]) it was 17.3 nM.
Consider `CNC(=O)Cn1cc(NC2CC3(CCN(c4ncnc5sc(CC(F)(F)F)cc45)C3)C2)cn1` (single isomer, unassigned) [Compound 355], for which the IC50 in the assay on MOLM14 (Homo sapiens, MOLM-14, 192 h) is more than 3.75 µM; at menin (setting [1]), 1460 nM.
For `CNC(=O)Cn1cc(NC2CC3(CCN(c4ncnc5sc(CC(F)(F)F)cc45)C3)C2)cn1` (single isomer, unassigned) [Compound 356], the IC50 in the assay on MOLM14 is more than 3.75 µM; on menin (setting [1]) it was 2680 nM.
Turning to `N#CCn1c(=O)[nH]c2cc(NC3CC4(CCN(c5ncnc6sc(CC(F)(F)F)cc56)C4)C3)ccc21` (single isomer, unassigned) [Compound 357], the IC50 in the assay on MOLM14 (Homo sapiens, MOLM-14, 192 h) was more than 3.75 µM; at menin (setting [1]) it was 3.1 nM.
Regarding `N#CCn1c(=O)[nH]c2cc(NC3CC4(CCN(c5ncnc6sc(CC(F)(F)F)cc56)C4)C3)ccc21` (single isomer, unassigned) [Compound 358], the IC50 in the assay on MOLM14 was found to be 3.5 µM; at menin (setting [1]), 5.3 nM.
With `NC(=O)Cn1c(=O)[nH]c2cc(NC3CC4(CCN(c5ncnc6sc(CC(F)(F)F)cc56)C4)C3)ccc21` (single isomer, unassigned) [Compound 359], the IC50 is more than 3.75 µM with MOLM14 (Homo sapiens, MOLM-14, 192 h) and 16.2 nM on menin (setting [1]).
On to `NC(=O)Cn1c(=O)[nH]c2cc(NC3CC4(CCN(c5ncnc6sc(CC(F)(F)F)cc56)C4)C3)ccc21` (single isomer, unassigned) [Compound 360], for which the IC50 in the assay with MOLM14 is more than 3.75 µM; at menin (setting [1]) it was 448 nM.
As to `CN(C(=O)c1ccc(NC2CC3(CCN(c4ncnc5sc(CC(F)(F)F)cc45)C3)C2)cc1)S(C)(=O)=O` (single isomer, unassigned) [Compound 363], the IC50 in the assay on MOLM14 (Homo sapiens, MOLM-14, 192 h) was 2.1 µM; on menin (setting [2]) it was 44.1 nM; on menin (setting [1]), 46 nM.
As to `CN(C(=O)c1ccc(NC2CC3(CCN(c4ncnc5sc(CC(F)(F)F)cc45)C3)C2)cc1)S(C)(=O)=O` (single isomer, unassigned) [Compound 364], the IC50 in the assay on MOLM14 was found to be 1.1 µM; at menin (setting [2]) it was 0.8 nM; at menin (setting [1]), 1.3 nM.
On to `CS(=O)(=O)NCc1ccc(NC2CC3(CCN(c4ncnc5sc(CC(F)(F)F)cc45)C3)C2)cc1` (single isomer, unassigned) [Compound 367], for which the IC50 in the assay on MOLM14 (Homo sapiens, MOLM-14, 192 h) is more than 3.75 µM; at menin (setting [1]), 63.6 nM.
Take `CS(=O)(=O)NCc1ccc(NC2CC3(CCN(c4ncnc5sc(CC(F)(F)F)cc45)C3)C2)cc1` (single isomer, unassigned) [Compound 368]: the values for the IC50 with MOLM14 and at menin (setting [1]) were 2.61 µM and 2.9 nM, respectively.
For `N#CCc1ccc(NC2CC3(CCN(c4nc(N)nc5sc(CC(F)(F)F)cc45)C3)C2)cc1` (single isomer, unassigned) [Compound 379], the IC50 with MOLM14 (Homo sapiens, MOLM-14, 192 h) is more than 3.75 µM; on menin (setting [1]), 1.4 nM.
The like results for `Nc1nc(N2CCC3(CC(Nc4ccc5[nH]c(=O)[nH]c5c4)C3)C2)c2cc(CC(F)(F)F)sc2n1` (single isomer, unassigned) [Compound 382] were, in that order, more than 3.75 µM and 27.9 nM.

For the origin of these results see patent US11396517B1, “Exo-aza spiro inhibitors of menin-MLL interaction” (Janssen Pharmaceutica NV, priority 2017, dated 2022).
